Here are results for twelve molecules from patent US20110071141A1, “Pesticidial Condensed-Ring Aryl Compounds” (Bayer CropScience AG, priority 2008, published 2011).

Molecules are shown by their SMILES. Read-outs that look alike come from different tables or passages of the source.

Assay type in all cases: in vivo
Assay [1] relates to Boophilus microplus. In words: whole plant or invertebrate. The note with it: Rhipicephalus microplus, 168 h, read-out: activity (mortality in %; 100% means all eggs infertile). As to the method: (§1) Solvent: dimethyl sulfoxide
Five adult engorged female ticks (Boophilus microplus) are injected with compound solution into the abdomen. Ticks are transferred into replica plates and incubated in a climate chamber for a period of time. Egg deposition of fertile eggs is monitored. After 7 days, mortality in % is determined. 100% means that all eggs are infertile; 0% means that all eggs are fertile.

For the next assay, the system named is Ctenocephalides felis. In words: whole plant or invertebrate. The note with it: 48 h, read-out: activity (mortality in %). As to the method: as §1
Approximately 10 to 15 adult unfed (Ctenocepahlides felis) are placed in flea chambers. […] The blood chamber is heated to 37° C. whereas the flea chamber is kept at room temperature. After 2 days, mortality in % is determined. 100% means that all the fleas have been killed; 0% means that none of the fleas have been killed.

Another assay has as its system Lucilia cuprina larvae. In words: whole plant or invertebrate. To be noted: 48 h, read-out: activity (mortality in %). As to the method:
as §1
Approximately 20-30 (Lucilia cuprina larvae) are transferred into a test tube containing 1 cm^3 of minced horse meat and 0.5 ml aqueous dilution of test compound. After 2 days, mortality in % is determined.

The subject of a further assay is Aulacophora femoralis. In words: whole plant or invertebrate. To be noted: in Cucumis sativus, 168 h, read-out: mortality (control efficacy). The source says: The test solution has been prepared as described in biological test example 1.
Cucumber leaves were immersed in a test solution that had been diluted to a predetermined concentration with water. The leaves were air-dried and then put in a plastic cup containing sterilized black soil. 5 Aulacophora femoralis second instar larvae were released in the cup.

The next assay has as its system Musca domestica. In words: whole plant or invertebrate. To be noted: 48 h, read-out: activity (mortality in %). Here is the method: as §1
Prior to the assay, a piece or kitchen sponge is soaked with a mixture of sugar and compound solution and placed into a container. 10 adults (Musca domestica) are placed into the container and closed with a perforated lid. After 2 days, mortality in % is determined. 100% means that all the flies have been killed; 0% means that none of the flies have been killed.

The next assay has as its system Tetranychus urticae. As to the kind of experiment: Test on Tetranychus urticae (spray test). The note with it: active compound concentration 100 ppm; adult mites on pinto bean sprayed; 7 days. Here is the method: The test solution has been prepared as described in biological test example 1. 50 to 100 adult Tetranychus urticae were placed on pinto bean leaves at true leaf stage having two main leaves that had been grown in a pot (6 cm diameter). After 1 day, a generous amount of the test solution which has been diluted with water to the predetermined concentration was sprayed thereto using a spray gun.
After keeping the pot in a green house for 7 days, acaricidal ratio was calculated. 100% means that all the mites have been killed; 0% means that none of the mites have been killed.

The next assay has as its system Spodoptera frugiperda. As to the kind of experiment: Spodoptera frugiperda test (spray application). To be noted: 168 h, application rate 500 g/ha, sprayed maize leaf sections, larvae, 7 days. The source says: Solvent: 78.0 parts by weight acetone • 1.5 parts by weight dimethylformamide Wetting agent 0.5 parts by weight alkylarylpolyglcolether
To produce a suitable preparation of the active compound, 1 part by weight of active compound is mixed with the stated amount of solvent and emulsifier, and the concentrate is dilutes with emulsifier-containing water to the desired concentration.
Maize (Zea mais) leaf sections are sprayed with a preparation of the active ingredient of the desired concentration. Once dry, the leaf sections are infested with fall armyworm larvae (Spodoptera frugiperda). After 7 days, mortality in % is determined. 100% means that all caterpillars have been killed and 0% means that none of the caterpillars have been killed.

The subject of assay [2] is Boophilus microplus. In words: Boophilus microplus test (dip). The note with it: Rhipicephalus microplus, 168 h, read-out: activity (mortality in %). As to the method:
as §1
Eight to ten adult engorged female Boophilus microplus ticks are placed in perforated plastic beakers and immersed in aqueous compound solution for one minute. Ticks are transferred to a filter paper in a plastic tray. Egg deposition of fertile eggs is monitored after. After 7 days, mortality in % is determined. 100% means that all the ticks have been killed; 0% means that none of the ticks have been killed.

Another assay has as its system Phaedon cochleariae. As to the kind of experiment: Phaedon cochleariae test (spray application). The note with it: in Brassica rapa, foliar, 168 h, read-out: activity (mortality in %). As to the method: Solvent: 78.0 parts by weight of acetone • • 1.5 parts by weight of dimethylformamide Emulsifier: 0.5 parts by weight of alkylaryl polyglycolether
To produce a suitable preparation of active compound, 1 part by weight of active compound is mixed with the stated amount of solvent and emulsifier, and the concentrate is diluted with emulsifier-containing water to the desired concentration. Chinese cabbage (Brassica pekinesis) leaf-disks are sprayed with a preparation of the active ingredient of the desired concentration. Once dry, the leaf disks are infested with mustard beetle larvae (Phaedon cochleariae).
After 7 days, mortality in % is determined. 100% means that all beetle larvae have been killed and 0% means that none of the beetle larvae have been killed.

Consider `FC(F)(F)C1(c2cc(Cl)cc(Cl)c2)CC(c2ccc3c(c2)COC3)=NO1` (centres unmarked) [Example 1-131, 5-(3,5-dichlorophenyl)-3-(1,3-dihydro-2-benzofuran-5-yl)-5-(trifluoromethyl)-4,5-dihydroisoxazole], for which the mortality at 0.02 mg in the assay with Boophilus microplus [1] was not below 80%. Moreover, the mortality at 100 ppm in the assay on Ctenocephalides felis (in Bos taurus) was not below 80%; in the assay on Lucilia cuprina larvae (in Equus caballus) it was not below 80%; with Aulacophora femoralis it was 100%; in the assay with Musca domestica, not below 80%.

For the molecule `CC(=O)/N=C1\c2ccc(C3=NOC(c4cc(Cl)cc(Cl)c4)(C(F)(F)F)C3)cc2CN1Cc1ccccn1` (centres unmarked) [Example 1-235, N-[(1E)-5-[5-(3,5-dichlorophenyl)-5-(trifluoromethyl)-4,5-dihydroisoxazol-3-yl]-2-(pyridin-2-ylmethyl)-2,3-dihydro-1H-isoindol-1-ylinden]acetamide], the mortality at 0.02 mg in the assay on Boophilus microplus [1] is not below 80%. Also, the mortality at 100 ppm in the assay on Ctenocephalides felis (in Bos taurus), in the assay on Lucilia cuprina larvae (in Equus caballus) and in the assay on Musca domestica was not below 80% throughout.

As for `O=C1c2ccc(C3=NOC(c4cc(Cl)cc(Cl)c4)(C(F)(F)F)C3)cc2CN1Cc1ccccn1` (centres unmarked) [Example 1-58], the “mortality (acaricidal ratio)” value in the assay on Tetranychus urticae is given as “at least 98%”.

Take `O=C1OCc2cc(C3=NOC(c4cc(Cl)cc(Cl)c4)(C(F)(F)F)C3)ccc21` (centres unmarked) [Example 1-2, 5-[5-(3,5-dichlorophenyl)-5-(trifluoromethyl)-4,5-dihydroisoxazol-3-yl]-2-benzofuran-1(3H)-one]: the mortality at 0.02 mg in the assay on Boophilus microplus [1] was not below 80%. Moreover, the mortality at 100 ppm with Ctenocephalides felis (in Bos taurus) is not below 80%; in the assay on Lucilia cuprina larvae (in Equus caballus), not below 80%; with Aulacophora femoralis, 100%; in the assay on Boophilus microplus [2], not below 80%; in the assay on Musca domestica, not below 80%. In addition, the mortality at 500 g/ha in the assay with Spodoptera frugiperda was not below 80%; in the assay with Phaedon cochleariae it was 80%.

Take `CC(=O)NC1CCc2cc(C3=NOC(c4cc(Cl)cc(Cl)c4)(C(F)(F)F)C3)ccc21` (centres unmarked) [Example 3-3, N-{5-[5-(3,5-dichlorophenyl)-5-(trifluoromethyl)-4,5-dihydroisoxazol-3-yl]-2,3-dihydro-1H-inden-1-yl}acetamide]: in the assay with Boophilus microplus [1], the mortality at 0.02 mg is not below 80%. Besides, the mortality at 100 ppm was not below 80% with Ctenocephalides felis (in Bos taurus); not below 80% in the assay on Lucilia cuprina larvae (in Equus caballus); 100% in the assay with Aulacophora femoralis; not below 80% with Boophilus microplus [2]; not below 80% in the assay on Musca domestica.

Turning to `CCNC(=O)N1CCc2cc(C3=NOC(c4cc(Cl)cc(Cl)c4)(C(F)(F)F)C3)ccc21` (centres unmarked) [Example 3-638, 5-[5-(3,5-dichlorophenyl)-5-(trifluoromethyl)-4,5-dihydroisoxazol-3-yl]-N-ethyl-2,3-dihydro-1H-indol-1-carboxamide], the mortality at 0.02 mg with Boophilus microplus [1] is not below 80%. Further, the mortality at 100 ppm is not below 80% with Ctenocephalides felis (in Bos taurus), not below 80% in the assay on Lucilia cuprina larvae (in Equus caballus), 100% in the assay on Aulacophora femoralis and not below 80% in the assay on Musca domestica.

Consider `CC(=O)N1Cc2cc(C3=NOC(c4cc(Cl)cc(Cl)c4)(C(F)(F)F)C3)ccc2C1=O` (centres unmarked) [Example 1-221, 2-acetyl-5-[5-(3,5-dichlorophenyl)-5-(trifluoromethyl)-4,5-dihydroisoxazol-3-yl]-2,3-dihydro-1H-isoindol-1-one], for which the mortality at 100 ppm in the assay on Aulacophora femoralis came to 100%.

Regarding `NC1CCCc2cc(C3=NOC(c4cc(Cl)cc(Cl)c4)(C(F)(F)F)C3)ccc21` (centres unmarked) [Example 3-211, 6-[5-(3,5-dichlorophenyl)-5-(trifluoromethyl)-4,5-dihydroisoxazol-3-yl]-1,2,3,4-tetrahydronaphthalen-1-amine], the mortality at 0.02 mg with Boophilus microplus [1] was not below 80%. Moreover, the mortality at 100 ppm in the assay on Aulacophora femoralis is 100%.

With `N#Cc1ccc2cc(C3=NOC(c4cc(Cl)cc(Cl)c4)(C(F)(F)F)C3)ccc2n1` (centres unmarked) [Example 1-255, 6-[5-(3,5-dichlorophenyl)-5-(trifluoromethyl)-4,5-dihydroisoxazol-3-yl]quinolin-2-carbonitrile], in the assay on Boophilus microplus [1], the mortality at 0.02 mg was not below 80%. Also, the mortality at 100 ppm in the assay on Ctenocephalides felis (in Bos taurus), in the assay on Lucilia cuprina larvae (in Equus caballus) and in the assay with Musca domestica was not below 80% in each case.

On to `N=C1OCc2cc(C3=NOC(c4cc(Cl)cc(Cl)c4)(C(F)(F)F)C3)ccc21` (centres unmarked) [Example 1-232, 5-[5-(3,5-dichlorophenyl)-5-(trifluoromethyl)-4,5-dihydroisoxazol-3-yl]-2-benzofuran-1(3H)-imine], for which the mortality at 0.02 mg in the assay on Boophilus microplus [1] was not below 80%. For the same molecule, the mortality at 100 ppm in the assay with Ctenocephalides felis (in Bos taurus) is not below 80%; in the assay on Lucilia cuprina larvae (in Equus caballus), not below 80%; in the assay on Aulacophora femoralis it was 100%; with Musca domestica, not below 80%.

Turning to `CC(=O)N1Cc2ccc(C3=NOC(c4cc(Cl)cc(Cl)c4)(C(F)(F)F)C3)cc2C1` (centres unmarked) [Example 1-151, 1-{5-[5-(3,5-dichlorophenyl)-5-(trifluoromethyl)-4,5-dihydroisoxazol-3-yl]-1,3-dihydro-2H-isoindol-2-yl}ethanone], the mortality at 0.02 mg with Boophilus microplus [1] is not below 80%. Moreover, the mortality at 100 ppm in the assay with Lucilia cuprina larvae (in Equus caballus) is not below 80%; in the assay with Aulacophora femoralis, 100%.

`CCNC(=O)NC1CCc2cc(C3=NCC(c4cc(Cl)cc(Cl)c4)(C(F)(F)F)C3)ccc21` (centres unmarked) [Example 3-112, 1-{5-[3-(3,5-dichlorophenyl)-3-(trifluoromethyl)-3,4-dihydro-2H-pyrrol-5-yl]-2,3-dihydro-1H-inden-1-yl}-3-ethylurea]: the mortality at 0.02 mg in the assay on Boophilus microplus [1] (application rate 20 μg/animal injected, adult engorged female ticks, 7 days) is not below 80%. Also, the mortality at 100 ppm with Ctenocephalides felis (application rate 100 ppm in cattle blood, adult unfed fleas, 2 days) is not below 80%; with Lucilia cuprina larvae (application rate 100 ppm, larvae in minced horse meat, 2 days) it was not below 80%; in the assay on Aulacophora femoralis it was 100%; in the assay with Boophilus microplus [2] (application rate 100 ppm, adult engorged female ticks immersed one minute, 7 days), not below 80%; in the assay on Musca domestica (application rate 100 ppm, adults, 2 days) it was not below 80%.

The term mortality denotes the share of the test organisms that died.
